The values below come from BindingDB's records for doi:10.1016/s0969-8051(99)00080-3 (Emory University, 2000).

Assay [1] has as its target Sodium-dependent dopamine transporter (Homo sapiens, UniProt Q01959).
The target in assay [2] is Sodium-dependent noradrenaline transporter (Homo sapiens, UniProt P23975).
Chain of Sodium-dependent noradrenaline transporter (P23975 whole entry): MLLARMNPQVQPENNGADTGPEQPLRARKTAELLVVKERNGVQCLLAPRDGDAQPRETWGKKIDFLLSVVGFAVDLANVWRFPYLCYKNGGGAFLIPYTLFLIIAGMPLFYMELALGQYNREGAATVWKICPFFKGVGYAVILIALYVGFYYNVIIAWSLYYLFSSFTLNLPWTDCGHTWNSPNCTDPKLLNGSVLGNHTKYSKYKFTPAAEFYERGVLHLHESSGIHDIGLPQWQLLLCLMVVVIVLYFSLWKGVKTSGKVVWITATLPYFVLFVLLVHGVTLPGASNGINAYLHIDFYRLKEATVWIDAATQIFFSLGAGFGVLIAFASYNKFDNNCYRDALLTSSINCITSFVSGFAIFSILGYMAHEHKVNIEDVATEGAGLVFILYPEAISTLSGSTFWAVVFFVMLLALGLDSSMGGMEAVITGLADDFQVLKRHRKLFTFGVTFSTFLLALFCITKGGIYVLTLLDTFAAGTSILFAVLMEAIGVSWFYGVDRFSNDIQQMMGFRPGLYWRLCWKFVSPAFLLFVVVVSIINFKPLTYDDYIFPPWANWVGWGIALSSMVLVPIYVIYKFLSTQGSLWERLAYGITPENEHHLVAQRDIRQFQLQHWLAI

Chain of Sodium-dependent dopamine transporter (Q01959 whole entry): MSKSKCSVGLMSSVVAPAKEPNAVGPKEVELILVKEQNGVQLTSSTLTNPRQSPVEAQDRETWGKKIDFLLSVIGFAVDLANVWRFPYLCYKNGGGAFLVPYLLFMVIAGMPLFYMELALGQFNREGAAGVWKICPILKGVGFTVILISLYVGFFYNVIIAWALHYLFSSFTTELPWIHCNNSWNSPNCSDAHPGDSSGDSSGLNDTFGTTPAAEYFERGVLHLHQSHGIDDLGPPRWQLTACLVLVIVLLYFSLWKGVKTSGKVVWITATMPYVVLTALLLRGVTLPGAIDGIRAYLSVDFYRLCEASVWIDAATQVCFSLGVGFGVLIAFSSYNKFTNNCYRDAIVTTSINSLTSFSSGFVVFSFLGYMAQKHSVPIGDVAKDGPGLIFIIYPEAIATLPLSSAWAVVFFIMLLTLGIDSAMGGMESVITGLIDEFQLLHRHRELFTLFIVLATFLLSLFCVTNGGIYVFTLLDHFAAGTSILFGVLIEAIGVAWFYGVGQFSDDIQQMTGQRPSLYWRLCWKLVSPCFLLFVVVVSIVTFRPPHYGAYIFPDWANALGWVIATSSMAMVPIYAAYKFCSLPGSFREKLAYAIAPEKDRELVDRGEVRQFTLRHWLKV

What is called Ki is the equilibrium dissociation constant of an inhibitor or competing ligand from its target. `COC(=O)C1C(c2ccc(Cl)cc2)CC2CCC1N2CCF` (configuration not stated) [MOLI000038]: the Ki in assay [1] worked out at 1.53 nM; in assay [2] it was 240 nM.
